Measured values: US20120328569A1, “INHIBITORS OF HEPATITIS C VIRUS NS5B POLYMERASE” (priority 2010, published 2012)

These compounds were tested on HCV genotype 1b replicon (assay: HCV replicon assay, cell ELISA with antibody to replicon-encoded NS3/4A (genotype 1b replicon)). Settings: Hepatitis C virus, 96 h, read-out: Replicon 1b IC50 (nM), HCV genotype 1b replicon cells, 96 hours incubation, NS3/4A ELISA readout.
Assay type: cell-based, hepatitis C virus
Protocol: The HCV NS5B inhibitory activity of the present compounds may be tested using assays known in the art. The HCV NS5B polymerase inhibitors described herein have activities in a genotype 1b replicon assay as described in the Examples. The assay is performed by incubating a replicon harboring cell-line in the presence of inhibitor for a set period of time and measuring the effect of the inhibitor on HCV replicon replication either directly by quantifying replicon RNA level, or indirectly by measuring enzymatic activity of a co-encoded reporter enzyme such as luciferase or β-lactamase. By performing a series of such measurements at different inhibitor concentrations, the effective inhibitory concentration of the inhibitor (EC50 or EC90) is determined. See Jan M. Vrolijk et al., A replicons-based bioassay for the measurement of interferons in patients with chronic hepatitis C, 110 J. VIROLOGICAL METHODS 201 (2003). Such assays may also be run in an automated format for high through-put screening. See Paul Zuck et al., A cell-based β-lactamase reporter gene assay for the identification of inhibitors of hepatitis C virus replication, 334 ANALYTICAL BIOCHEMISTRY 344 (2004).
Measurement of inhibition by compounds was performed using the HCV replicon system. Several different replicons encoding different HCV genotypes or mutations were used. In addition, potency measurements were made using different formats of the replicon assay, including different ways of measurements and different plating formats. See Jan M. Vrolijk et al., A replicons-based bioassay for the measurement of interferons in patients with chronic hepatitis C, 110 J. VIROLOGICAL METHODS 201 (2003); Steven S. Carroll et al., Inhibition of Hepatitis C Virus RNA Replication by 2′-Modified Nucleoside Analogs, 278(14) J. BIOLOGICAL CHEMISTRY 11979 (2003). However, the underlying principles are common to all of these determinations, and are outlined below.
Stable neomycin phosphotransferase encoding replicons-harboring cell lines were used, so all cell lines were maintained under G418 selection prior to the assay. Potency was determined using a cell ELISA assay with an antibody to the replicons encoded NS3/4a protease. See Caterina Trozzi et al., In Vitro Selection and Characterization of Hepatitis C Virus Serine Protease Variants Resistant to an Active-Site Peptide Inhibitor, 77(6) J. Virol. 3669 (2003). To initiate an assay, replicon cells were plated in the presence of a dilution series of test compound in the absence of G418. Typically, the assays were performed in a 96-well plate formate for manual operation, or a 384-well plate format for automated assay. Replicon cells and compound were incubated for 96 hours. At the end of the assay, cells were washed free of media and compound, and the cells were then lysed. RNA was quantified indirectly through detection of replicon-encoded NS3/4A protein levels, through an ELISA-based assay with an antibody specific for NS3/4A. IC50 determinations were calculated as a percentage of a DMSO control by fitting the data to a four-parameter fit function and the data obtained is provided in the table below.

Structure (SMILES) | IC50 [nM]
CNC(=O)c1c(-c2ccc(F)cc2)oc2cc(N(CCO)S(C)(=O)=O)c(-c3ccccc3)cc12 [Example 2, 2-(4-fluorophenyl)-6-[(2-hydroxyethyl) (methylsulfonyl)amino]-N-methyl-5-phenyl-1-benzofuran-3-carboxamide] | 114
CNC(=O)c1c(-c2ccc(F)cc2)oc2cc(N(CCN(C)c3ccccc3)S(C)(=O)=O)c(-c3ccccc3)cc12 [Example 3, 2-(4-fluorophenyl)-N-methyl-6-[{2-[methyl(phenyl)amino]ethyl} (methylsulfonyl)amino]-5-phenyl-1-benzofuran-3-carboxamide] | 80
CNC(=O)c1c(-c2ccc(F)cc2)oc2cc(N(C(C)c3ccccc3)S(C)(=O)=O)c(-c3ccccc3)cc12 (centres unmarked) [Example 4, 2-(4-fluorophenyl)-N-methyl-6-[(methylsulfonyl) (1-phenylethyl)amino]-5-phenyl-1-benzofuran-3-carboxamide] | 703
CCN(c1cc2oc(-c3ccc(F)cc3)c(C(=O)NC)c2cc1-c1ccccc1)S(C)(=O)=O [Example 5, 6-[ethyl (methylsulfonyl)amino]-2-(4-fluorophenyl)-N-methyl-5-phenyl-1-benzofuran-3-carboxamide] | 47
CNC(=O)c1c(-c2ccc(F)cc2)oc2cc(N(CCCc3ccccc3)S(C)(=O)=O)c(-c3ccccc3)cc12 [Example 6, 2-(4-fluorophenyl)-N-methyl-6-[(methylsulfonyl) (3-phenylpropyl)amino]-5-phenyl-1-benzofuran-3-carboxamide] | 118
CONC(=O)c1c(-c2ccc(F)cc2)oc2cc(N(CCN(C)c3ccccc3)S(C)(=O)=O)c(-c3ccccc3)cc12 [Example 8, 2-(4-fluorophenyl)-N-methoxy-6-[{2-[methyl(phenyl)amino]ethyl} (methylsulfonyl)amino]-5-phenyl-1-benzofuran-3-carboxamide] | 276
CCN(c1cc2oc(-c3ccc(F)cc3)c(C(=O)NOC)c2cc1-c1ccccc1)S(C)(=O)=O [Example 9, 6-[ethyl (methylsulfonyl)amino]-2-(4-fluorophenyl)-N-methoxy-5-phenyl-1-benzofuran-3-carboxamide] | 99
CONC(=O)c1c(-c2ccc(F)cc2)oc2cc(N(CCCc3ccccc3)S(C)(=O)=O)c(-c3ccccc3)cc12 [Example 10, 2-(4-fluorophenyl)-N-methoxy-6-[(methylsulfonyl) (3-phenylpropyl)amino]-5-phenyl-1-benzofuran-3-carboxamide] | 221
CNC(=O)c1c(-c2ccc(F)cc2)oc2cc(N(CC3CCCCC3)S(C)(=O)=O)c(-c3ccccc3)cc12 [Example 13, 6-[(cyclohexylmethyl)(methylsulfonyl)amino]-2-(4-fluorophenyl)-N-methyl-5-phenyl-1-benzofuran-3-carboxamide] | 84
CNC(=O)c1c(-c2ccc(F)cc2)oc2cc(N(CC(C)C)S(C)(=O)=O)c(-c3ccccc3)cc12 [Example 16, 2-(4-fluorophenyl)-N-methyl-6-[(2-methylpropyl) (methylsulfonyl)amino]-5-phenyl-1-benzofuran-3-carboxamide] | 68
CCCCN(c1cc2oc(-c3ccc(F)cc3)c(C(=O)NC)c2cc1-c1ccccc1)S(C)(=O)=O [Example 17, 6-[butyl (methylsulfonyl)amino]-2-(4-fluorophenyl)-N-methyl-5-phenyl-1-benzofuran-3-carboxamide] | 48
CNC(=O)c1c(-c2ccc(F)cc2)oc2cc(N(CCC(C)C)S(C)(=O)=O)c(-c3ccccc3)cc12 [Example 18, 2-(4-fluorophenyl)-N-methyl-6-[(3-methylbutyl) (methylsulfonyl)amino]-5-phenyl-1-benzofuran-3-carboxamide] | 41
CCC(C)CN(c1cc2oc(-c3ccc(F)cc3)c(C(=O)NC)c2cc1-c1ccccc1)S(C)(=O)=O (centres unmarked) [Example 19, 2-(4-fluorophenyl)-N-methyl-6-[(2-methylbutyl) (methylsulfonyl)amino]-5-phenyl-1-benzofuran-3-carboxamide] | 227
CCCCCN(c1cc2oc(-c3ccc(F)cc3)c(C(=O)NC)c2cc1-c1ccccc1)S(C)(=O)=O [Example 20, 2-(4-fluorophenyl)-N-methyl-6-[(methylsulfonyl) (pentyl)amino]-5-phenyl-1-benzofuran-3-carboxamide] | 66
CNC(=O)c1c(-c2ccc(F)cc2)oc2cc(N(CC3CCC3)S(C)(=O)=O)c(-c3ccccc3)cc12 [Example 21, 6-[(cyclobutylmethyl) (methylsulfonyl)amino]-2-(4-fluorophenyl)-N-methyl-5-phenyl-1-benzofuran-3-carboxamide] | 115
CNC(=O)c1c(-c2ccc(F)cc2)oc2cc(N(C3CCCC3)S(C)(=O)=O)c(-c3ccccc3)cc12 [Example 22, 6-[cyclopentyl (methylsulfonyl)amino]-2-(4-fluorophenyl)-N-methyl-5-phenyl-1-benzofuran-3-carboxamide] | 55
CCC(CC)CN(c1cc2oc(-c3ccc(F)cc3)c(C(=O)NC)c2cc1-c1ccccc1)S(C)(=O)=O [Example 23, 6-[(2-ethylbutyl) (methylsulfonyl)amino]-2-(4-fluorophenyl)-N-methyl-5-phenyl-1-benzofuran-3-carboxamide] | 374
CCCCCCN(c1cc2oc(-c3ccc(F)cc3)c(C(=O)NC)c2cc1-c1ccccc1)S(C)(=O)=O [Example 24, 2-(4-fluorophenyl)-6-[hexyl (methylsulfonyl)amino]-N-methyl-5-phenyl-1-benzofuran-3-carboxamide] | 182
CNC(=O)c1c(-c2ccc(F)cc2)oc2cc(N(CCCC(C)C)S(C)(=O)=O)c(-c3ccccc3)cc12 [Example 25, 2-(4-fluorophenyl)-N-methyl-6-[(4-methylpentyl) (methylsulfonyl)amino]-5-phenyl-1-benzofuran-3-carboxamide] | 166
CNC(=O)c1c(-c2ccc(F)cc2)oc2cc(N(CCC3CCCCC3)S(C)(=O)=O)c(-c3ccccc3)cc12 [Example 27, 6-[(2-cyclohexylethyl) (methylsulfonyl)amino]-2-(4-fluorophenyl)-N-methyl-5-phenyl-1-benzofuran-3-carboxamide] | 384
CNC(=O)c1c(-c2ccc(F)cc2)oc2cc(N(CCCO)S(C)(=O)=O)c(-c3ccccc3)cc12 [Example 28, 2-(4-fluorophenyl)-6-[(3-hydroxypropyl) (methylsulfonyl)amino]-N-methyl-5-phenyl-1-benzofuran-3-carboxamide] | 46
CNC(=O)c1c(-c2ccc(F)cc2)oc2cc(N(CC(C)O)S(C)(=O)=O)c(-c3ccccc3)cc12 (centres unmarked) [Example 29, 2-(4-fluorophenyl)-6-[(2-hydroxypropyl) (methylsulfonyl)amino]-N-methyl-5-phenyl-1-benzofuran-3-carboxamidc] | 412
CNC(=O)c1c(-c2ccc(F)cc2)oc2cc(N(CCCCOC(C)=O)S(C)(=O)=O)c(-c3ccccc3)cc12 [Example 30, 4-{[2-(4-fluorophenyl)-3-(methylcarbamoyl)-5-phenyl-1-benzofuran-6-yl] (methylsulfonyl)amino}butyl acetate] | 40
C#CCN(c1cc2oc(-c3ccc(F)cc3)c(C(=O)NC)c2cc1-c1ccccc1)S(C)(=O)=O [Example 34, 2-(4-fluorophenyl)-N-methyl-6-[(methylsulfonyl) (prop-2-yn-1-yl)amino]-5-phenyl-1-benzofuran-3-carboxamide] | 189
C=CCN(c1cc2oc(-c3ccc(F)cc3)c(C(=O)NC)c2cc1-c1ccccc1)S(C)(=O)=O [Example 35, 2-(4-fluorophenyl)-N-methyl-6-[(methylsulfonyl) (prop-2-en-1-yl)amino]-5-phenyl-1-benzofuran-3-carboxamide] | 7
CNC(=O)c1c(-c2ccc(F)cc2)oc2cc(N(CCC=C(C)C)S(C)(=O)=O)c(-c3ccccc3)cc12 [Example 40, 2-(4-fluorophenyl)-N-methyl-6-[(4-methylpent-3-en-1-yl)(methylsulfonyl)amino]-5-phenyl-1-benzofuran-3-carboxamide] | 90
